Data: the supplement of paper PMC4862054

Tests used:
Conditions in all cases: incubation time: 72 h
CAL-120 [1] = test: normalised viability (% of control), CellTiter-Blue; higher = more viable cells (100 = DMSO, 0 = benzethonium chloride kill control)
Summary of the method: (§1)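 After 72 h on compound-loaded 384-well plates, breast cancer cell lines received 2.5 µl CellTiter-Blue reagent for 2 h at 37 °C. Fluorescence at 560/590 nm was scaled per plate so that vehicle was 100 and a positive kill control was 0. The value stands for normalised viability at a single listed concentration of the series.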

MFM-223 [2] = test: as above
Summary of the method: as §1

MDA-MB-231 [3] = test: as above
Summary of the method: as §1

CAL-85-1 [4] = test: as above
Summary of the method: as §1

HDQ-P1 [5] = test: as above
Summary of the method: as §1

CAL-148 [6] = test: as above
Summary of the method: as §1

SK-BR-3 [7] = test: as above
Summary of the method: as §1

MDA-MB-468 [8] = test: as above
Summary of the method: as §1

CAL-51 [9] = test: as above
Summary of the method: as §1

BT-549 [10] = test: as above
Summary of the method: as §1

DU-4475 [11] = test: as above
Summary of the method: as §1

MDA-MB-436 [12] = test: as above
Summary of the method: as §1

MDA-MB-453 [13] = test: as above
Summary of the method: as §1

BT-474 [14] = test: as above
Summary of the method: as §1

Hs578T [15] = test: as above
Summary of the method: as §1

HCC1599 [16] = test: as above
Summary of the method: as §1

HCC1937 [17] = test: as above
Summary of the method: as §1

HCC1143 [18] = test: as above
Summary of the method: as §1

CAL-120 [19] = test: normalised response (% of control), CellTiter-Glo; higher = more viable cells (100 = DMSO, 0 = benzethonium chloride kill control)
Summary of the method: (§2)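 Each entry is the normalised signal at a single concentration within a series. The series comprised 5 concentrations in 10-fold steps over a compound-specific 10,000-fold range, placed in 384-well plates into which breast cancer cell lines were seeded as 20 µl suspension and incubated 72 h. CellTox Green (485/520 nm) fluorescence and then CellTiter-Glo luminescence were read, with signals normalised per plate to 0.1 % DMSO (100) and a positive kill control (0).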

MFM-223 [20] = test: as above
Summary of the method: as §2

MDA-MB-231 [21] = test: as above
Summary of the method: as §2

CAL-85-1 [22] = test: as above
Summary of the method: as §2

HDQ-P1 [23] = test: as above
Summary of the method: as §2

MCF-10A = test: as above
Summary of the method: as §2

CAL-148 [24] = test: as above
Summary of the method: as §2

SK-BR-3 [25] = test: as above
Summary of the method: as §2

MDA-MB-468 [26] = test: as above
Summary of the method: as §2

CAL-51 [27] = test: as above
Summary of the method: as §2

BT-549 [28] = test: as above
Summary of the method: as §2

DU-4475 [29] = test: as above
Summary of the method: as §2

MDA-MB-436 [30] = test: as above
Summary of the method: as §2

MDA-MB-453 [31] = test: as above
Summary of the method: as §2

BT-474 [32] = test: as above
Summary of the method: as §2

Hs578T [33] = test: as above
Summary of the method: as §2

HCC1599 [34] = test: as above
Summary of the method: as §2

HCC1937 [35] = test: as above
Summary of the method: as §2

HCC1143 [36] = test: as above
Summary of the method: as §2

Structure (SMILES) | normalised viability (CAL-120 [1]) | normalised viability (MFM-223 [2]) | normalised viability (MDA-MB-231 [3]) | normalised viability (CAL-85-1 [4]) | normalised viability (HDQ-P1 [5]) | normalised viability (CAL-148 [6]) | normalised viability (SK-BR-3 [7]) | normalised viability (MDA-MB-468 [8]) | normalised viability (CAL-51 [9]) | normalised viability (BT-549 [10]) | normalised viability (DU-4475 [11]) | normalised viability (MDA-MB-436 [12]) | normalised viability (MDA-MB-453 [13]) | normalised viability (BT-474 [14]) | normalised viability (Hs578T [15]) | normalised viability (HCC1599 [16]) | normalised viability (HCC1937 [17]) | normalised viability (HCC1143 [18]) | normalised response (CAL-120 [19]) | normalised response (MFM-223 [20]) | normalised response (MDA-MB-231 [21]) | normalised response (CAL-85-1 [22]) | normalised response (HDQ-P1 [23]) | normalised response (MCF-10A) | normalised response (CAL-148 [24]) | normalised response (SK-BR-3 [25]) | normalised response (MDA-MB-468 [26]) | normalised response (CAL-51 [27]) | normalised response (BT-549 [28]) | normalised response (DU-4475 [29]) | normalised response (MDA-MB-436 [30]) | normalised response (MDA-MB-453 [31]) | normalised response (BT-474 [32]) | normalised response (Hs578T [33]) | normalised response (HCC1599 [34]) | normalised response (HCC1937 [35]) | normalised response (HCC1143 [36])
COC1=CC(c2cc3ccccc3[nH]2)=N/C1=C\c1[nH]c(C)cc1C [Obatoclax] (1 nM) | 79.6% | 81% | 71.4% | 78.3% | 78.8% | 94.7% | 74.9% | 99% | 105% | 90.6% | 93.6% | 83.5% | 86.2% | 96.2% | 103% | 85.6% | 90.5% | 81% | 96.4% | 92.8% | 96.6% | 95% | 92.9% | 87% | 87.8% | 89% | 98.7% | 111% | 97.7% | 100% | 95.6% | 90.6% | 96.6% | 93.5% | 87.7% | 95.4% | 92.5%
CC(C)C[C@H](NC(=O)[C@H](Cc1ccccc1)NC(=O)c1cnccn1)B(O)O [Bortezomib] (0.1 nM) | 98.8% | 101% | 91.9% | 104% | 92.2% | 104% | 88.8% | 91.8% | 97.3% | 82.3% | 129% | 103% | 101% | 75.1% | 96.4% | 122% | 82.9% | 98.8% | 102% | 103% | 101% | 95.6% | 93.6% | 113% | 95.7% | 101% | 89.8% | 90.9% | 91.5% | 103% | 93.4% | 103% | 98.6% | 104% | 95.9% | 96.2% | 100%
COc1ccc(C2=N[C@@H](c3ccc(Cl)cc3)[C@@H](c3ccc(Cl)cc3)N2C(=O)N2CCNC(=O)C2)c(OC(C)C)c1 [Nutlin-3] (1 nM) | 78.7% | 89.4% | 101% | 90.5% | 89% | 104% | 95.6% | 92.8% | 96.3% | 107% | 82.5% | 101% | 102% | 110% | 95.9% | 91.6% | 71.5% | 89.8% | 94.6% | 101% | 105% | 102% | 105% | 101% | 115% | 106% | 98.6% | 84.8% | 97.7% | 106% | 119% | 114% | 99.8% | 103% | 104% | 103% | 103%
C[C@@]1(C(=O)Nc2ccc(F)nc2)CCCN1c1nc(Nc2cc(C3CC3)n[nH]2)c2cccn2n1 (1 nM) | 90.9% | 96.1% | 115% | 92.9% | 95.4% | 97.1% | 101% | 107% | 99.6% | 88.2% | 105% | 122% | 98.1% | 99% | 104% | 102% | 118% | 92% | 87.5% | 87.7% | 94.2% | 93% | 91.2% | 77.6% | 83.3% | 87.3% | 93.6% | 95.1% | 95.9% | 95.2% | 83.9% | 91.9% | 93% | 95.3% | 90.4% | 88.7% | 89%
O=c1[nH]c(=O)n([C@H]2C[C@H](O)[C@@H](CO)O2)cc1F [Floxuridine] (1 nM) | 100% | 103% | 99% | 94.1% | 108% | 102% | 97.2% | 99.9% | 98.2% | 123% | 104% | 112% | 108% | 91.2% | 130% | 95.7% | 89.2% | 98.6% | 101% | 110% | 107% | 95.9% | 102% | 115% | 97.7% | 107% | 105% | 120% | 102% | 103% | 132% | 104% | 104% | 103% | 96.9% | 99.1% | 97.6%
CN1CCN(c2ccc3nc(-c4c(N)c5c(F)cccc5[nH]c4=O)[nH]c3c2)CC1 [Dovitinib] (1 nM) | 78.8% | 80.6% | 84.5% | 82% | 87.4% | 104% | 77.6% | 89.2% | 114% | 96.2% | 113% | 105% | 98.3% | 110% | 96.5% | 92.6% | 92.2% | 87.3% | 94.9% | 95.4% | 102% | 100% | 96% | 89.3% | 98.2% | 94.1% | 99.6% | 106% | 102% | 96.2% | 99.5% | 102% | 99.9% | 103% | 105% | 96.3% | 98.3%
